Results from patent EP1154766B1, “USE OF R-ARYL PROPIONIC ACIDS FOR PRODUCING MEDICAMENTS TO TREAT DISEASES IN HUMANS AND ANIMALS, WHEREBY SAID DISEASES CAN BE […] INFLUENCED BY INHIBITING THE ACTIVATION OF NF-KAPPA B” (PAZ Arzneimittel- Entwicklungsgesellschaft mbH, priority 1999, dated 2000).

What was measured:
[1] = test system: NF-κB (p50/p65 Komplex von NF-κB); assay: Electro mobility-shift assay (gel retention analysis) of LPS-induced NF-κB activation in RAW cells; type: cell-based
From the text: Die erfindungsgemäßen Arzneimittel auf der Basis von R-Arylpropionsäuren und deren Derivaten gemäß Anspruch 1 als Hemmer der NF-κB-Aktivierung zur Therapie von Erkrankungen, welche durch die Modifizierung der NF-κB-Aktiierung beeinflußt werden, beruht auf folgenden experimentellen Untersuchungen: Abb. 2: Konzentrationsabhängiger Einfluß von R- und S-Flurbiprofen auf die Aktivierung des Transkriptionsfaktors NF-κB in RAW-Zellen. Die Gelretentionsanalyse (Electro Mobility-Shift Assay; DIG Gel Shift Kit, Boehringer Mannheim) zeigt, daß LPS (1 µg/ml) zu einer Aktivierung von NF-κB (p50/p65 Komplex von NF-κB) führt (Spur Nr. 2 und 10). […] Eine densitometrische Auswertung ergab, daß S-Flurbiprofen hinsichtlich dieser Eigenschaften ca. 100 mal weniger potent war (Spur Nr. 11, 12, 13,14, gegen Spur Nr. 10 als Kontrolle). Spur Nr. 1 und 8 zeigen jeweils unstimulierte Kontrollzellen.

[2] = test system: Zymosan-induzierte Rattenpfotenödem; assay: Zymosan-induced rat paw oedema (plethysmograph); type: in vivo, Ratte; conditions: for Pfotenvolumen: rat, intraplantar zymosan, R-Flurbiprofen 1 to 27 mg/kg intraperitoneal, Abb. 3a-c
From the text: Da der nukleäre Transkriptionsfaktor NF-κB u.a. für die Bildung, einer Reihe von Enzymen mit proinflammatorischer und ödembildender Eigenschaften verantwortlich ist, wurde der Einfluß von R-Flurbiprofen auf das Zymosan-induzierte Rattenpfotenödem bestimmt (Methode beschrieben bei: Meller ST und Gebhart GF: Intraplantar zymosan as a reliable, quantifiable model of thermal and mechanical hyperalgesia in the rat; European Journal of Pain, 1, 43-52 (1997). Abbildung 3 a - c faßt die Ergebnisse zusammen. Abb. 3a - c: Zeitabhängige Zunahme des Rattenpfotenvolumens (gemessen mit einem Plethysmographen) nach intraplantarer Applikation von Zymosan. Nach Applikation von Zymosan [Meller and Gebhart (s.o.)] in eine Hinterpfote der Ratte kommt es als Zeichen einer Entzündung zur Zunahme des Pfotenvolumens (Placebo-Gruppe, Applikation von Vehicle = Phosphatpuffer (PP)). […] Dieser Effekt war besonders ausgeprägt zwischen der 2. und 6. Stunde nach Zymosan-Applikation. Dexamethason (0,5 mg/kg Körpergewicht), ein bekannter Hemmer der NF-κB Aktivierung, wurde als Positivkontrolle eingesetzt. […] S-Flurbiprofen ist ein bekannter Hemmer der Cyclooxygenasen. Abb. 4: Zusammenfassung der Effekte von 9 mg/kg R-Flurbiprofen, 9 mg/kg S-Flurbiprofen und 0,5 mg/kg Dexamethason gegen Placebo (V) über 24 Stunden.

[3] = test system: NF-κB; assay: Inhibition of NF-κB activation, method not stated; conditions: arylpropionic acid derivatives without notable CoA thioester formation in humans
[4] = test system: gastrointestinale Verträglichkeit; conditions: studies in humans, literature; cited from earlier work
[5] = test system: akutem Postepisiotomie-Schmerz; assay: Placebo-controlled double-blind study in acute post-episiotomy pain; type: in vivo, Frauen; conditions: single oral dose 25 mg or 100 mg, pain scale 0-3 over 360 min, Abb. 1
Description: Abb. 1: Placebo-kontrollierte Doppelblind-Studie an 180 Frauen mit akutem Postepisiotomie-Schmerz (Mittelwertkurven)
Die hospitalisierten Patienten wurden in drei Medikationsgruppen mit je 50 Patienten und einer Placebogruppe (30 Patienten) randomisiert. Jede Patientin erhielt innerhalb 48 Stunden nach der ansonsten normal verlaufenden Entbindung eine Einzeldosis der zu untersuchenden Studienmedikation (25 mg R(-)Flurbiprofen oder 100 mg R(-)Flurbiprofen oder 1000 mg Paracetamol) oder ein Placebo oral verabreicht. Kurz vor der oralen Gabe der Testpräparate bzw. des Placebos und zu genau festgelegten Untersuchungszeitpunkten (15, 30, 45, 60, 120, 180, 240, 300 und 360 Minuten) wurden die Patienten bezüglich ihres Schmerzempfindens befragt. Die Wirksamkeit der einzelnen Präparate wurde anhand einer Schmerzempfindungs-Skala (0 = keine, 1 = mild, 2 = moderat, 3 = stark) beurteilt. Die zeitlichen Verläufe sind in den in Abbildung 1 wiedergegebenen Mittelwertkurven der einzelnen Patientengruppen zusammengefaßt.

[6] = test system: postoperative dental pain; conditions: clinical study in patients, literature; cited from earlier work

## C[C@H](C(=O)O)c1ccc(-c2ccccc2)c(F)c1 [S-Flurbiprofen, reference compound]
[1]; densitometric evaluation of the gel shift, RAW-Zellen, LPS 1 µg/ml
  Potenz der Hemmung der NF-κB Aktivierung, mal weniger potent than R-Flurbiprofen: ca. 100 mal
[2]
  Pfotenvolumen: Reduktion des Pfotenvolumens

## CC(C(=O)O)c1ccc(-c2ccccc2)c(F)c1 (stereo not shown) [Flurbiprofen]
[3]
  Hemmung der Aktivierung von NF-κB: ausgeprägte Hemmung der Aktivierung von NF-κB

## C[C@@H](C(=O)O)c1ccc(-c2ccccc2)c(F)c1 [R-Flurbiprofen]
[1]; RAW-Zellen, LPS 1 µg/ml, micromolar concentrations, Abb. 2
  Hemmung der LPS induzierten Aktivierung von NF-κB: waren in der Lage diese LPS induzierte Aktivierung von NF-κB zu hemmen
[1]; relative to the corresponding S-enantiomer
  Hemmung der NF-κB Aktivierung, mal potenter als die entsprechenden S-Enantiomere: ca. 100 mal
[2]; 9 mg/kg, compared with 0,5 mg/kg Dexamethason, Abb. 4
  Effekte auf das Pfotenvolumen über 24 Stunden gegen Placebo: vergleichbar mit denen nach 0,5 mg/kg Dexamethason
[2]; hours after zymosan application
  Zeitraum, in dem der Effekt auf das Pfotenvolumen besonders ausgeprägt war: zwischen der 2. und 6. Stunde
[2]
  Pfotenvolumen: überraschende Abnahme des Pfotenvolumens
[4]
  gastrointestinale Verträglichkeit: gute gastrointestinale Verträglichkeit
[5]
  schmerzlindernde Wirkung: nachgewiesen

## CC(C(=O)O)c1cccc(C(=O)c2ccccc2)c1 (stereo not shown) [Ketoprofen]
[3]
  Hemmung der Aktivierung von NF-κB: ausgeprägte Hemmung der Aktivierung von NF-κB

## C[C@@H](C(=O)O)c1cccc(C(=O)c2ccccc2)c1 [R-Ketoprofen]
[6]
  schmerzlindernde Wirkung: nachgewiesen

## COc1ccc2cc([C@H](C)C(=O)O)ccc2c1 [Naproxen]
[3]
  Hemmung der Aktivierung von NF-κB: ausgeprägte Hemmung der Aktivierung von NF-κB
